Data from PubChem BioAssay AID1241 (SRMLSC, 2008).

Assay: compounds inducing NF-kB luciferase expression – cell-based, SH-SY5Y, dose response (AID 1241)
Conditions: SH-SY5Y NF-kB promoter luciferase reporter, fold induction

Which EC50 does the source give for `Cc1cc(N)n2nc(-c3ccccc3)cc2n1` here?
Its EC50 is 10 µM.

For `CCOC(=O)c1c(N)sc(C(=O)Nc2ccccc2F)c1C`, which EC50 is on record?
The EC50 was 1.92 µM.

For `Cc1ccc(NC(=O)c2ccccc2)s1`, which EC50 is on record?
The EC50 was 6.43 µM.

Which EC50 does the source give for `Cc1ccc2nc(/C=C/c3cccc(F)c3)ccc2c1` here?
The EC50 was 3.07 µM.

For `COc1ccc(-c2nc(-c3ccc(Br)cc3)no2)c(OC)c1`, which EC50 is on record?
Its EC50 is 2.56 µM.

For `O=C(Cc1ccccc1)Nc1nc2ccccc2s1`, which EC50 is on record?
The EC50 was 29.5 µM.

Which EC50 does the source give for `Cc1cccc(NC(=O)c2cnc3sccn3c2=O)c1` here?
The EC50 was 0.998 µM.

Which EC50 does the source give for `Cc1ccc(NC(=O)N2CCc3ccccc32)cc1C` here?
Its EC50 is 0.361 µM.

With `Cc1ccc(NC(=O)c2ccc3ccccc3n2)nc1` as the compound, how does the EC50 read?
Its EC50 is 4.11 µM.

With `Cc1ccc2nc(-c3ccc(NC(=O)CCN4C(=O)c5ccccc5C4=O)cc3)sc2c1` as the compound, how does the EC50 read?
The EC50 was 0.155 µM.

For `O=C(Nc1ccc2c(c1)CCC2)c1ccc(F)cc1`, which EC50 is on record?
Its EC50 is 0.217 µM.

For `O=C(/C=C/Nc1ccccc1C(F)(F)F)c1ccco1`, which EC50 is on record?
Its EC50 is 1.47 µM.

With `Cc1nn(C)cc1/C=C/C(=O)c1ccccc1` as the compound, how does the EC50 read?
The EC50 was 2.75 µM.

For `Cc1nc(-c2ccc(NC(=O)c3ccccc3)cc2)cs1`, which EC50 is on record?
The EC50 was 0.761 µM.

For `Cc1ccc(C(=O)Nc2ccc3c(c2)CCC3)cc1`, which EC50 is on record?
Its EC50 is 0.158 µM.

Which EC50 does the source give for `c1ccc(CCNc2ncnc3c2cnn3-c2ccccc2)cc1` here?
The EC50 was 27.4 µM.

For `Cn1/c(=N/N=C/c2ccccn2)sc2ccccc21`, which EC50 is on record?
The EC50 was 6.33 µM.

Which EC50 does the source give for `C/C(=N\NC(=O)c1ccc(Cl)cc1)c1cccs1` here?
Its EC50 is 1.4 µM.

Which EC50 does the source give for `Cc1ccc(Nc2nc(C3CC3)cs2)cc1` here?
The EC50 was 1.82 µM.

For `O=C1c2ccccc2NC(c2cnc3ccccc3n2)N1O` (configuration not stated), which EC50 is on record?
Its EC50 is 0.903 µM.

For `Cc1ccc(N=Nc2c(N)nn(-c3ccccc3)c2N)cc1`, which EC50 is on record?
Its EC50 is 10 µM.

Which EC50 does the source give for `O=C(Nc1ccccc1)c1ccc2ccccc2n1` here?
Its EC50 is 5.81 µM.

With `O=C(Nc1nc2c(s1)CCCC2)c1ccc(Br)s1` as the compound, how does the EC50 read?
The EC50 was 1.07 µM.

With `O=C(/C=C/Nc1ccc(Oc2ccccc2)cc1)c1ccco1` as the compound, how does the EC50 read?
Its EC50 is 1.21 µM.

With `Cc1ccc(N/C=C(/C#N)c2ccsc2)cc1C` as the compound, how does the EC50 read?
The EC50 was 6.87 µM.

Which EC50 does the source give for `CS(=O)(=O)N1N=C(c2ccc(Br)cc2)CC1c1ccc2c(c1)OCO2` (configuration not stated) here?
The EC50 was 2.68 µM.

For `Cc1ccsc1/C=N/Nc1cccc(C(=O)O)c1`, which EC50 is on record?
Its EC50 is 1.05 µM.

Which EC50 does the source give for `COc1ccc(C(=O)/C=C/Nc2ccc(C)cn2)cc1OC` here?
The EC50 was 6.49 µM.

With `COc1ccc(C2=Nc3cc(C)ccc3OC2)cc1` as the compound, how does the EC50 read?
The EC50 was 1.95 µM.

Which EC50 does the source give for `Cc1cccc(NC(=O)/C=C/c2ccc3c(c2)OCO3)n1` here?
The EC50 was 2.51 µM.

For `O=C(Nc1nc2ccccc2s1)c1ccc2c(c1)OCO2`, which EC50 is on record?
Its EC50 is 0.138 µM.

For `Cc1nnc(SCC(=O)Nc2ccc(-c3nc4ccccc4s3)cc2)s1`, which EC50 is on record?
Its EC50 is 0.328 µM.

For `O=C(NC1=NCCS1)c1sc2ccccc2c1Cl`, which EC50 is on record?
The EC50 was 5.76 µM.

For `COc1cc(SC)ccc1C(=O)Nc1ccc(C)cc1`, which EC50 is on record?
The EC50 was 3.05 µM.

With `CC(=O)N(/N=C1\Sc2ccccc2C1=O)c1cccc(C)c1` as the compound, how does the EC50 read?
The EC50 was 22.3 µM.

For `O=C(Nc1ccc(OC(F)F)c(Cl)c1)c1ccccn1`, which EC50 is on record?
Its EC50 is 6.28 µM.

For `Cc1ccc(NC(=O)c2cc3ccccc3o2)cc1S(=O)(=O)N(C)C`, which EC50 is on record?
The EC50 was 2.04 µM.

Which EC50 does the source give for `Cc1csc(SCc2nnc(-c3ccccc3Br)o2)n1` here?
The EC50 was 4.69 µM.

Which EC50 does the source give for `Cc1ccc(Nc2nc(-c3ccc(O)cc3O)cs2)nc1` here?
Its EC50 is 1.89 µM.

For `COc1ccc(-c2coc3cc(OC)cc(O)c3c2=O)cc1`, which EC50 is on record?
Its EC50 is 1.73 µM.

For `C/C(=N\N1C(=O)c2ccccc2NC1c1ccco1)c1ccccc1O` (configuration not stated), which EC50 is on record?
The EC50 was 2.5 µM.

For `N#CC1(c2ccc(NC(=O)c3ccccc3F)cc2)CCCC1`, which EC50 is on record?
The EC50 was 1.08 µM.

For `O=C(Nc1ccc2c(c1)CCC2)c1ccc(Br)s1`, which EC50 is on record?
The EC50 was 0.772 µM.

Which EC50 does the source give for `CC(=O)CSc1nc2cc3c(cc2cc1C#N)OCCO3` here?
The EC50 was 0.104 µM.

Which EC50 does the source give for `c1ccc2oc(-c3csc(NCC4CCCO4)n3)cc2c1` (configuration not stated) here?
Its EC50 is 2.54 µM.

For `Cc1ccc(Nc2nc(-c3ccc(O)c(O)c3)cs2)nc1`, which EC50 is on record?
The EC50 was 6.73 µM.

With `N#C/C(=N/Nc1ccc([N+](=O)[O-])cc1)C(=N)N1CCCCC1` as the compound, how does the EC50 read?
Its EC50 is 2.61 µM.

For `CN1/C(=C\C(=O)c2cccs2)Sc2ccccc21`, which EC50 is on record?
The EC50 was 1.28 µM.

With `O=C(/C=C/c1ccccc1Cl)c1ccccc(=O)c1O` as the compound, how does the EC50 read?
The EC50 was 8.07 µM.

With `Clc1ccc(-c2nnc(SCc3ccon3)o2)c(Cl)c1` as the compound, how does the EC50 read?
Its EC50 is 1.06 µM.

Which EC50 does the source give for `Cc1ccc(C(=O)/C=C/Nc2ccc3c(c2)OCO3)cc1` here?
Its EC50 is 0.896 µM.

With `O=C(OCC(=O)c1c[nH]c2ccccc12)c1cccc(O)c1` as the compound, how does the EC50 read?
The EC50 was 14.6 µM.

With `Clc1ccc(-c2cn3c(n2)-c2ccccc2C3)cc1Cl` as the compound, how does the EC50 read?
Its EC50 is 0.861 µM.

For `Cc1nn(-c2nc3ccccc3s2)c(N)c1-c1ccccc1`, which EC50 is on record?
The EC50 was 9.75 µM.

For `CC(=O)Nc1cccc(-c2csc(Nc3ccc(Cl)cn3)n2)c1`, which EC50 is on record?
The EC50 was 2.2 µM.

With `O=C(Nc1ncc(Cc2ccccc2)s1)c1cccs1` as the compound, how does the EC50 read?
Its EC50 is 1.08 µM.

For `C(=N\Nc1nc2ccccc2s1)/c1cccs1`, which EC50 is on record?
Its EC50 is 0.887 µM.

Which EC50 does the source give for `CC(C)CC(=O)Nc1ccc(-c2cn3ccsc3n2)cc1` here?
Its EC50 is 8.51 µM.

With `COc1ccccc1N1CCN(Cc2ccc(O)c3ncccc23)CC1` as the compound, how does the EC50 read?
The EC50 was 1.16 µM.

With `O=C(/C=C\c1ccccc1)Nc1nccs1` as the compound, how does the EC50 read?
The EC50 was 1.07 µM.

For `N#CC1=C2SC=C(c3ccc(Br)cc3)N2CCCC1=O`, which EC50 is on record?
Its EC50 is 19.4 µM.

For `COc1ccc2nc(Nc3ccccc3)sc2c1`, which EC50 is on record?
The EC50 was 11.1 µM.

Which EC50 does the source give for `O=C(N/N=C/C(Br)=C/c1ccccc1)c1cccs1` here?
Its EC50 is 18.2 µM.

For `Cc1cc(C(=O)Nc2nc3c(s2)CCCC3)cs1`, which EC50 is on record?
The EC50 was 1.63 µM.

Which EC50 does the source give for `COc1ccc(-c2csc(Nc3ccccc3)n2)cc1` here?
The EC50 was 2.49 µM.

With `CCCCNc1ncnc2c1cnn2-c1ccccc1` as the compound, how does the EC50 read?
Its EC50 is 6.07 µM.

Which EC50 does the source give for `COc1ccc(C(=O)/C=C2\Sc3ccccc3N2C)cc1` here?
Its EC50 is 1.75 µM.

Which EC50 does the source give for `O=C(Nc1nc(-c2nc3ccccc3s2)cs1)C1CC1` here?
Its EC50 is 15.6 µM.

For `NC(=O)c1ccccc1N/C=C/C(=O)c1ccc(Cl)cc1`, which EC50 is on record?
Its EC50 is 5.14 µM.

With `CCOC(=O)c1ccc(Nc2ncccc2[N+](=O)[O-])cc1` as the compound, how does the EC50 read?
Its EC50 is 2.83 µM.

Which EC50 does the source give for `CN(C)C(=O)Oc1ccc(-c2cn3cc(Cl)ccc3n2)cc1` here?
The EC50 was 3.22 µM.

For `O=C(Nc1nc2ccccc2s1)NC1CCCCC1`, which EC50 is on record?
The EC50 was 2.42 µM.

With `FC(F)(F)c1cc(Cl)c2nc(-c3ccccc3)cn2c1` as the compound, how does the EC50 read?
Its EC50 is 5.67 µM.

For `COc1ccccc1-c1nc(-c2ccc(Br)o2)no1`, which EC50 is on record?
Its EC50 is 1.04 µM.

For `O=Cc1cn(-c2ccccc2)nc1-c1ccc2c(c1)OCCO2`, which EC50 is on record?
Its EC50 is 6.4 µM.

With `Cc1cccnc1Nc1nc(-c2ccc(O)cc2)cs1` as the compound, how does the EC50 read?
Its EC50 is 8.13 µM.

Which EC50 does the source give for `COc1ccc2nc(Nc3ccccc3OC)sc2c1` here?
Its EC50 is 2.24 µM.

For `Nc1cccn2c(-c3ccc(Cl)c(Cl)c3)cnc12`, which EC50 is on record?
Its EC50 is 2.68 µM.

With `CN(c1ccccc1)c1ccc(/C=N/N2CCOCC2)cc1` as the compound, how does the EC50 read?
The EC50 was 6.77 µM.

Which EC50 does the source give for `Cc1nc2c(ccc3nc(NC(=O)c4ccc5c(c4)OCCO5)sc32)s1` here?
The EC50 was 0.784 µM.

Which EC50 does the source give for `O=C(Nc1ccc2c(c1)CCC2)c1ccccc1F` here?
The EC50 was 1.8 µM.

With `O=[N+]([O-])c1ccc(N/N=C/c2ccc[nH]2)cc1` as the compound, how does the EC50 read?
Its EC50 is 3.63 µM.

With `O=C(NCCSc1ccccn1)c1ccc(Cl)cc1` as the compound, how does the EC50 read?
Its EC50 is 2.7 µM.

With `COc1cccc(/C=C/C(=O)c2ccc[nH]2)c1` as the compound, how does the EC50 read?
Its EC50 is 14.9 µM.

With `CCCCn1cnc2sc(-c3ccccc3)cc2c1=O` as the compound, how does the EC50 read?
Its EC50 is 12 µM.

Which EC50 does the source give for `O=C(/C=C/c1ccco1)N1CCc2ccccc21` here?
Its EC50 is 1.04 µM.

With `Cc1ccc(NC(=O)N2CCc3ccccc32)cc1` as the compound, how does the EC50 read?
The EC50 was 0.763 µM.

Which EC50 does the source give for `COc1ccc(-c2nc3ccc([N+](=O)[O-])cc3[nH]2)cc1` here?
Its EC50 is 1.66 µM.

Which EC50 does the source give for `c1ccc(-c2cnc(-c3ccccc3)nc2)cc1` here?
The EC50 was 0.868 µM.

For `Cc1ccc(-c2cn3cccc(C)c3n2)cc1`, which EC50 is on record?
The EC50 was 2.3 µM.

For `CCOc1ccc2nc(-c3ccccc3)[nH]c2c1`, which EC50 is on record?
The EC50 was 1.14 µM.

With `c1ccc(Nc2nc(-c3cccs3)cs2)nc1` as the compound, how does the EC50 read?
The EC50 was 0.667 µM.

With `O=S(=O)(c1ccc(Cl)cc1)c1snnc1-c1ccccc1` as the compound, how does the EC50 read?
The EC50 was 2.33 µM.

For `Cc1ccc(CN=C2Nc3ccccc3CS2)cc1`, which EC50 is on record?
The EC50 was 1.19 µM.

Which EC50 does the source give for `CC1CC1C(=O)OCC(=O)Nc1ccc(N=Nc2ccccc2)cc1` (configuration not stated) here?
Its EC50 is 15.4 µM.

With `Cc1ccc2nc(-c3ccc(NC(=O)COC(=O)c4cncc(Br)c4)cc3)sc2c1` as the compound, how does the EC50 read?
Its EC50 is 0.393 µM.

With `COC(=O)c1ccc(-c2nc3ccc(C)cc3o2)cc1` as the compound, how does the EC50 read?
Its EC50 is 3.3 µM.
